According to a melting point compilation (Tetko et al.; mined from patent text by program, amines drawn as free bases though some values may be those of a salt):

| melting point [°C] | Compound |
| --- | --- |
| 135 to 140 | CCOC(=O)c1nc(Cc2ccccc2[N+](=O)[O-])n[nH]1 |
| 129 to 130 | CNC(=O)C1SCSC(=NO)S1 (stereo not drawn) |
| 170 | O=S1(=O)CCSC(Oc2cccc(Cl)c2)=N1 |
| 160 to 161 | O=C(O)CCC(=NOCc1ccc(OCc2cn3c(-c4ccccc4)cccc3n2)cc1)c1ccccc1 |
| 68 to 69 | CC(=O)OC1C=C(C)C(=O)CC(C)(C)C1OC(C)=O (stereo not drawn) |
| 224 to 225 | Nc1nnc2c3c(c(Cl)nn12)CCCC3 |
| 76.5 to 77.5 | COc1cc(C2OCCO2)cc(C#N)c1OC |
| 189 to 190 | CCCN1CCN(Cc2nc(-c3ccc4c(c3)Nc3ccccc3S4)cs2)CC1 |
| 141 to 144 | CC(Oc1ncn(-c2cccc(Br)c2)n1)C(N)=O (stereo not drawn) |
| 240 to 241 | NS(=O)(=O)c1cc2c(cc1Cl)C(=O)N(CCc1ccccn1)C2=O |
| 117 to 119 | Cn1cc(C(=O)Nc2ccccc2OC(F)(F)C(F)F)c(C(F)F)n1 |
| 228 to 230 | CCCCc1nc2c(N)nc3cc(-c4cccnc4)ccc3c2n1CCNC(=O)C(C)C |
| 177 to 179 | CS(=O)(=O)c1ccc(CN2C(=O)C3(COc4cc5c(cc43)OCO5)c3ccccc32)o1 (stereo not drawn) |
| 148 to 152 | Fc1ccc2nc(Cl)c(Cl)nc2c1 |
| 140 to 143 | COc1cccc(F)c1-c1cc(NC(=O)C2CCNCC2)ncn1 |
| 99 | Nc1cc(=O)n(Cc2ccc(OC(F)(F)F)cc2)[nH]1 |
| 159 to 161 | COc1cc(OC)cc(-c2nc[nH]c2-c2ccc(OC(F)F)c(O)c2)c1 |
| 136 | O=C(c1ccccc1F)c1cccc2c1N(C(=O)CBr)CC2 |
| 78 to 80 | CC(C)(C)c1nn(C(C)(C)C)c(N)c1C#N |
| 196 to 198 | O=S(=O)(NCc1ccc(Cl)cc1)c1c[nH]cn1 |
| 67 to 68 | CCCNc1nc(-c2ccccc2)c(CCC(=O)OC)s1 |
| 170 to 172 | CN1CCN(CCCNc2ncc3cc(-c4c(Cl)cccc4Cl)c(=O)n(C)c3n2)CC1 |
| 109 to 110 | COc1cc2c(cc1OCc1ccccc1)CCN(C(=O)NCCN(C)C1CCCCC1)C2c1ccccc1 (stereo not drawn) |
| 101 | CCCCCCCNC(=O)N(C)c1cccc(-c2ccc(CCC(=O)O)cc2)c1 |
| 267 | O=Cc1ccc(-c2ccc3nc[nH]c(=O)c3c2)o1 |

| melting point [°C] | Compound |
| --- | --- |
| 116 to 118 | CC(C)n1cc(I)c2c(Cl)ncnc21 |
| 100 | CCN(CC)CCC1CCCCN1C(=O)N1c2ccccc2C(=O)Nc2cccnc21 (stereo not drawn) |
| 87 to 88 | CCCCCC[C@@H]1C[C@H](c2ccc(O)cc2)C(=O)O1 |
| 217 to 219 | O=C(CNc1ccc(F)cc1)Nc1ccccc1C(=O)O |
| 110 to 111 | CCOc1cc(OCCCc2cn(-c3ccccn3)nc2OCC)ccc1CCC(=O)O |
| 156 to 157 | CCOC(=O)C(C)(C)n1c(=O)[nH]c2ccsc2c1=O |
| 106 to 107 | CC(=O)N=c1sc(C)cn1CC(O)c1cccs1 (stereo not drawn) |
| 122 to 126 | CCCCC(CC)C(=O)Nc1ccc2ccn(Cc3ccc(C(=O)NS(=O)c4ccccc4)cc3OC)c2c1 (stereo not drawn) |
| 233 to 235 | O=C(O)c1cccc(C(=O)C=Cc2ccc(OCc3ccc4ccccc4n3)cc2)c1O |
| 100 to 102 | COC=C(C(=O)OC)c1cnc(C)nc1Oc1cccc(C(F)(F)F)c1 |
| 131 to 134 | Cc1cn(C(C)(C)C(=O)N(C)C)nc1-c1ccco1 |
| 199 to 201 | Cc1cc(SC2=C(O)CC(CCc3ccc(O)cc3)(C3CCCC3)OC2=O)c(C(C)(C)C)cc1CO (stereo not drawn) |
| 55 to 58 | CCCCCCCCCCCCCCCCCC(=O)ON1C(C)(C)CC(OC(C)=O)CC1(C)C |
| 164 to 166 | C/C(=C\c1ccc(Cc2cccnc2)cc1)C(=O)O |
| 99 to 100 | CCOC(=O)c1cnc2c(C)csc2c1NCc1ccccc1 |
| 99 to 100 | CCC(CC)C(c1ccnn1-c1ccccc1)N(C)S(=O)(=O)c1cc(Cl)c(Cl)s1 (stereo not drawn) |
| 85 to 86 | C=C(C)Cc1cc(C=O)cc(OCC)c1O |
| 139 | CCN(CC)C(=O)N1CCc2cc(S(=O)(=O)N3C(=O)C(NCCC4CCN(C(=O)OC(C)(C)C)CC4)(c4ccccc4Cl)c4cc(Cl)ccc43)ccc21 (stereo not drawn) |
| 132 to 133 | Nc1ncnc2ncn(CCO)c12 |
| 89.5 to 90.5 | CCOC(=O)COc1cccc2oc(-c3ccccc3)cc(=O)c12 |
| 187 to 190 | Nc1ccc2c(c1)C(=O)C1(CCOC1=O)S2 (stereo not drawn) |
| 162 to 164 | Cc1ccc(-c2cc(N3CCCCC3)c(C#N)c3c2-c2ccccc2C3)cc1 |
| 241 to 243 | O=C(O)c1cc(/C=C/c2ccc(O)cc2)ccc1O |
| 200 | CC(C)(C)OC(=O)NC(C)(C)c1ccc(-c2nc(Nc3ccc(CCN4CCOCC4)cc3)ncc2C#N)cc1 |
| 107 to 108 | COc1ccc(-c2cc(=O)n(CC=Cc3ccc(F)cc3F)nc2-c2ccc(OC)cc2)cc1 |

| melting point [°C] | Compound |
| --- | --- |
| 100 to 102 | CCCCCCCc1cc(O)cc2c1C(=O)OC(C)(C)O2 |
| 119 to 122 | COc1cc(N=c2scc(-c3ccc(Cl)c(S(=O)(=O)N(C)C)c3)n2C)cc(OC)c1OC |
| 257 to 258 | COc1cc(OC)c2cc(-c3ccccc3)c(=O)[nH]c2c1 |
| 157 to 159 | CCCn1c(COCC)nc2c(N)nc3ccc(OCCN)cc3c21 |
| 141 to 142 | CN(CCOc1ccc(N)cc1)c1ccncc1 |
| 243 to 245 | O=C(CN1C(=O)C2(COc3cc4c(cc32)CCO4)c2c(Cl)cccc21)Nc1ccccc1F (stereo not drawn) |
| 192 to 193 | Cc1nc(C)c(-c2ccnc(Nc3ccc(N4CCCC4)cc3)n2)s1 |
| 173 to 174 | N#Cc1ccc(NC(=O)c2cccc(OCc3ccc(F)c(F)c3)c2)cc1 |
| 93 to 94 | CCOC(=O)C(CC)(CC)CCS(N)(=O)=O |
| 214 to 219 | CCOC(=O)Cc1ccc2c(c1)C(O)c1ccccc1O2 (stereo not drawn) |
| 106 to 108 | CC(=O)OCC1OC(n2cc(SC#N)c(=O)[nH]c2=O)CC1(O)C(C)=O (stereo not drawn) |
| 134 to 136 | CC(C)Cn1cnc2c(Cl)nc3ccccc3c21 |
| 189 | CCOc1ccc(-c2c(Cl)ncn2-c2ccc(S(=O)(=O)NC(C)(C)C)cc2)cc1 |
| 248 to 250 | CCCc1n[nH]cc1-c1nsc(Nc2ccccn2)n1 |
| 194 to 196 | COC(=O)c1ccccc1S(=O)(=O)Cc1c(O)ccc2c1CCCC2=O |
| 276 to 278 | O=C(O)c1cn2c(n1)COc1ccc(Cl)cc1-2 |
| 304 to 306 | COc1ccc(-c2ccc(C=C3SC(=O)NC3=O)cc2)cc1C12CC3CC(CC(C3)C1)C2 |
| 121 to 127 | COc1cc(C=O)ccc1OCC#CI |
| 168 to 172 | CC(C)(C)c1ccccc1N1CCN(C(=O)C(=O)Nc2ccccn2)CC1 |
| 138 | Cc1cc(C(N)(C(F)(F)F)C(F)(F)F)cc(C)c1OCC(=O)O |
| 116 to 117 | CNc1c2c(nc3ccccc13)CCCC2=O |
| 219 | CC(C)C(=O)N[C@H]1CC[C@H](CCN2CCN(c3nccc4c3CCO4)CC2)CC1 |
| 156 to 157 | CC(=O)c1cc(S(=O)(=O)c2ccccc2)ccc1O |
| 267 to 268 | Nc1nc(-c2ccc(F)cc2)c(CC(=O)O)s1 |
| 100 | CCCCCCCCCCCCCCCCCCNC(=O)NN |

| melting point [°C] | Compound |
| --- | --- |
| 90.4 | COc1cccc(OCc2ccc(C(=O)N(C)C3CCCCC3)cc2)c1 |
| 149 to 152 | CCC(=O)NCC[C@@H]1CCc2cc(O)c3c(c21)CCO3 |
| 86 to 87 | Cc1ccc(S(=O)(=O)N(C)c2ccc(Cl)cc2Cl)cc1 |
| 53 to 55 | CCCNc1nc(N)nc(N(CCC)c2ccc(OC)c(F)c2)n1 |
| 192 to 195 | N#Cc1c(C(=O)O)cnn1-c1ccc(Cl)cc1 |
| 137 to 140 | COC(=O)c1ccc(Cc2cn(C)c3ccc(C(=O)OC)cc23)c(OC)c1 |
| 227 to 228 | Cc1cc(Cl)cc(CO[C@H]2CCCN(Cc3nc(=O)[nH][nH]3)[C@H]2c2ccccc2)c1 |
| 191 to 193 | NC(=O)Cc1ccc2[nH]cc(CCN3C(=O)c4ccccc4C3=O)c2c1 |
| 203 | Clc1nn2c(-c3ccccc3Br)nnc2c2ccccc12 |
| 259 to 261 | CNC(=O)c1cnc(SC)nc1Nc1ccc2[nH]ncc2c1 |
| 165 to 167 | CC(C)NCc1ccc(COc2cccc3c2CN(C2CCC(=O)NC2=O)C3=O)cc1 (stereo not drawn) |
| 170 to 173 | CCOC(=O)c1[nH]c2cc(F)c(Cl)cc2c1Sc1cc(C)cc(C)c1 |
| 207 to 208 | O=CN1CC2Oc3ccccc3OC2C1 (stereo not drawn) |
| 244 to 246 | O=C1OC2(CCN(C(=O)Nc3ncc(-c4ccccc4)cn3)CC2)c2c(F)cccc21 |
| 87.8 to 87.9 | COCCOc1ccc(CCCOC(=O)NCC2CC2)c(Oc2ncc(C(F)(F)F)cc2Cl)c1 |
| 229 | CC1=C(C(=O)N(C)C)C(c2ccccc2Cl)c2c[nH]nc2N1 (stereo not drawn) |
| 56.9 | Oc1ccccc1C=C1c2ccccc2CCc2ccccc21 |
| 125 | CC(Oc1ccc(N(C)c2nnc3cc(Cl)ccc3n2)cc1)C(=O)O (stereo not drawn) |
| 148 to 151 | CS(=O)(=O)Nc1ccc([N+](=O)[O-])cc1Br |
| 57.5 to 60.5 | CCCS(=O)(=O)ON=C(Cl)c1ccc(C)cc1 |
| 222 to 225 | CSc1cnc2cc(C)sc2c1O |
| > 295 | O=C(O)c1ccc(=O)n(CCNC(=O)c2cccnc2)c1 |
| 90 to 93 | CC(C)Nc1cccnc1N1CCN(C(=O)c2ccc(C(=O)NC(CO)CO)cn2)CC1 |

| Compound | melting point [°C] |
| --- | --- |
| C[C@@H]1C(=O)C[C@H]2C[C@@H]1OO[C@@]2(C)/C=C\c1ccc(F)cc1 | 84 |
| CS(=O)(=O)c1c(C#N)nn(-c2c(Cl)cc(C(F)(F)F)cc2Cl)c1-n1cccc1 | 200 to 202 |
| COC(=O)[C@@H]1C[C@H](OC(=O)c2cc3ccccc3o2)C(=O)[C@H]2[C@@]1(C)CC[C@H]1C(=O)O[C@H](c3ccoc3)C[C@]21C | 226 to 227 |
| CN1CCC2(CC1)c1ccccc1Oc1c(N)cccc12 | 173 to 174 |
| COc1ccc(Cc2cnc(N[N+](=O)[O-])[nH]c2=O)cn1 | 184 to 186 |
